Measured values as given in PMC9405123, “Design, Synthesis and Mechanistic Studies of Novel Isatin-Pyrazole Hydrazone Conjugates as Selective and Potent Bacterial MetAP Inhibitors” (Antibiotics, 2022).
≈ marks a conversion by molar mass, not a printed value.

Columns and labels:
JST63 = assay: MIC on environmental MDR isolate (microdilution)
E. faecalis = assay: Minimum bactericidal concentration; assay type: cell-based, Enterococcus faecalis
S. aureus = assay: Minimum inhibitory concentration (broth dilution); assay type: cell-based; details: Staphylococcus aureus, alone
E. coli = assay: Minimum inhibitory concentration (broth dilution); assay type: cell-based, Escherichia coli; details: Escherichia coli, alone, read-out: MIC
HK91 = assay: MIC on environmental MDR isolate (microdilution); details: Ralstonia

For O=C1Nc2ccc(F)cc2/C1=N\NC(=O)c1cc(-c2cccc(Br)c2)n[nH]1 [PS9, (E)-3-(3-Bromophenyl)-N′-(5-Fluoro-2-Oxoindolin-3-Ylidene)-1H-Pyrazole-5-Carbohydrazide], the MIC (JST63) was 1000 µg/mL (≈ 2340 µM), the “MBC/MIC Ratio (R*)” value (E. faecalis) was 4 and the MBC (E. faecalis; Enterococcus faecalis) was 32 µg/mL (≈ 74.7 µM). For the same compound, the MIC (S. aureus) was 32 µg/mL (≈ 74.7 µM), the MIC (E. coli) was 16 µg/mL (≈ 37.4 µM) and the MIC (HK91) was 2 µg/mL (≈ 4.67 µM).
